# In patent US5438057A, “Pharmaceutical compositions” (priority 1991, dated 1995):
# What was measured:
# [1] = tested on: acute daunorubicin toxicity; details: Herman et al, Res. Commun. Chem. Pathol. Pharmacol., 1985, 48, 39; cited from earlier work
# [2] = tested on: doxorubicin-induced cardiotoxicity; assay: Protective activity against doxorubicin-induced cardiotoxicity: cardiac output, heart rate, survival, congestive heart failure at 8 weeks; format: in vivo, Sprague Dawley rats; details: for Survival: survivors/animals; for Incidence of CHF (congestive heart failure): over 8 weeks
# Protocol: (§1) Mature male Sprague Dawley rats, 13-14 weeks old, weighing 400-500 gm were used. The animals were caged in groups of three and were kept in a constant environment. They were fed 41-B cubed diet and water ad libitum. The animal house was maintained in an alternating 12-hour wake-sleep cycle.
# (§2) The cardioprotective activity of (±) trans-1,2-bis(3,5-dioxopiperazin-1-yl)cyclobutane (hereinafter referred to as the compound) was studied in the rats. […] The suspension was prepared shortly before use and was administered at a constant injection volume of 1 ml per 100 gm body weight. Doxorubicin hydrochloride (hereafter referred to as doxorubicin) (Farmitalia, Milan, Italy) was dissolved in sterile water (2 mg/ml) before injection.
# (§3) A group of 6 animals received a combined treatment of the compound and doxorubicin. The compound was administered to animals as a single intraperitoneal (i.p.) injection into the lower right quadrant of the abdomen to avoid damage to vital organs. An hour after the administration of the compound, the animals received a single intravenous (i.v.) injection of doxorubicin (4 mg/kg), via the femoral vein. A group of 10 animals received an i.p. injection of saline (1 ml/100 gm) followed by an i.v. injection of saline (0.2 ml/100 gm) one hour later. These rats acted as control animals. Nine animals received an i.p. injection of saline one hour before an i.v. administration of doxorubicin (4 mg/kg). To minimise the effects of circadian timing, doxorubicin administration was carried out between 13.30 hours and 15.30 hours. During intravenous drug administration and for subsequent cardiac output measurements, animals were anaesthetised with choral hydrate (300 mg/kg).
# The protective activity of the compound against doxorubicin-induced cardiotoxicity in the rats was assessed at 8 weeks by measuring the cardiac output in animals receiving the treatment using an external counting technique wherein a radioactive tracer, technetium (^99m TcO4), was injected as a bolus into the femoral vein of an anaesthetised animal. The activity time curve over the heart was recorded at 0.1 second intervals for 40 seconds, using an NaI detector connected to a multi-channel analyzer (ND-62, Nuclear Data). ECG and heart rate were determined concomitantly with the cardiac output measurement, using a human ECG monitor (Hewlett Packard 7830A) coupled to a scope memory (model VK-12-2, Seltek Instrument Ltd.) and a chart recorder.
# Gross post mortem examinations were carried out on the animals that died during the study as well as those killed at the end of experiment (8 weeks).
# (§4) In this study, statistical differences between group means were analysed using Student's t-test.
# [3] = Solubility in saline / aqueous media; format: physicochemical; details: administered as suspension in 0.5% CMC
# [4] = tested on: daunorubicin toxicity; doxorubicin toxicity; details: Herman et al, Adv. Pharmacol. Chemother., 1982, 19, 249; cited from earlier work
# [5] = Body weight (general acute toxicity) after i.p. pretreatment and doxorubicin; format: in vivo, Sprague Dawley rats
# Protocol: as §1, §2, §3
# The animals were weighed daily for up to three weeks after receiving treatment. The maximum reduction in body weight over this period was used as an index for the assessment of general acute toxicity. Animals were also weighed at 4 and 8 weeks to assess the general toxicity of the drug.
# as §4
# [6] = compound 100 mg/kg i.p. + doxorubicin 4 mg/kg i.v. after 1 hour, 8 weeks
# [7] = compound 150 mg/kg i.p. + doxorubicin 4 mg/kg i.v. after 1 hour, 8 weeks
# [8] = compound 200 mg/kg i.p. + doxorubicin 4 mg/kg i.v. after 1 hour, 8 weeks
# [9] = compound 100, 150 or 200 mg/kg i.p. + doxorubicin 4 mg/kg
# [10] = saline i.p. + doxorubicin 4 mg/kg i.v. after 1 hour
# [11] = saline + doxorubicin 4 mg/kg, 8 weeks
# [12] = saline i.p. + doxorubicin 4 mg/kg i.v. after 1 hour, 8 weeks
smiles,measurement,setting,value
O=C1CN(CCCN2CC(=O)NC(=O)C2)CC(=O)N1,protective effect against acute daunorubicin toxicity,[1],either no protective activity or only minimal protective activity
"O=C1CN([C@@H]2CC[C@H]2N2CC(=O)NC(=O)C2)CC(=O)N1 (racemic) [Compound, (±) trans-1,2-bis(3,5-dioxopiperazin-1-yl)cyclobutane]",change in heart rate,[2]; animals pretreated with the compound + doxorubicin 4 mg/kg,no change in heart rate
same,RCO: mean relative cardiac output (treated / age-matched control),[2]; [6],0.80 ± 0.05
same,RHR: mean relative heart rate (treated / age-matched control),[2]; [6],1.04 ± 0.03
same,Survival,[2]; [6],6/6
same,Incidence of CHF (congestive heart failure),[2]; compound 100 mg/kg i.p. + doxorubicin 4 mg/kg i.v. after 1 hour,0/6
same,RCO: mean relative cardiac output (treated / age-matched control),[2]; [7],0.86 ± 0.06
same,RHR: mean relative heart rate (treated / age-matched control),[2]; [7],1.00 ± 0.04
same,Survival,[2]; [7],6/6
same,Incidence of CHF (congestive heart failure),[2]; compound 150 mg/kg i.p. + doxorubicin 4 mg/kg i.v. after 1 hour,0/6
same,RCO: mean relative cardiac output (treated / age-matched control),[2]; [8],0.84 ± 0.05
same,RHR: mean relative heart rate (treated / age-matched control),[2]; [8],1.05 ± 0.03
same,Survival,[2]; [8],6/6
same,Incidence of CHF (congestive heart failure),[2]; compound 200 mg/kg i.p. + doxorubicin 4 mg/kg i.v. after 1 hour,0/6
same,activity against doxorubicin-induced cardiotoxicity,[2]; [9],significant activity against doxorubicin-induced cardiotoxicity
same,survival (in words),[2]; [9],survived the course of study of 8 weeks
same,signs of congestive failure,"[2]; compound 100, 150 or 200 mg/kg i.p. + doxorubicin 4 mg/kg, 8 weeks",without showing any signs of congestive failure
same,impairment in cardiac output compared to saline and doxorubicin,"[2]; compound 100, 150 or 200 mg/kg i.p. + doxorubicin 4 mg/kg, p<0.001",significantly less impairment in cardiac output
same,dose dependence of the protective activity,[2]; dose range 100-200 mg/kg i.p. + doxorubicin 4 mg/kg,no indication of dose dependent changes in the protective activity
same,solubility in saline,[3],inadequately soluble in saline
CC(CN1CC(=O)NC(=O)C1)N1CC(=O)NC(=O)C1 (racemic) [ICRF 159],effectiveness in reducing high dose daunorubicin toxicity relative to doxorubicin toxicity,[4],consistently more effective in reducing high dose daunorubicin toxicity than doxorubicin toxicity
"CCC(CN1CC(=O)NC(=O)C1)N1CC(=O)NC(=O)C1 (racemic) [R=C2 H5 and R'=R""=H (dl)]",protective effect against acute daunorubicin toxicity,[1],either no protective activity or only minimal protective activity
"CC(CN1CC(=O)NC(=O)C1)N1CC(=O)NC(=O)C1 (racemic) [the compound having R=CH3 and R'=R""=H (as the dl, d or l isomer)]",protective effect against acute daunorubicin toxicity,[1],give protection against the lethal effects of daunorubicin
"CC[C@H]([C@H](C)N1CC(=O)NC(=O)C1)N1CC(=O)NC(=O)C1 (relative stereo) [R: CH3, R'=C2 H5 and R""=H (dl-erythro)]",protective effect against acute daunorubicin toxicity,[1],either no protective activity or only minimal protective activity
"O=C1CN(C2CCC2N2CC(=O)NC(=O)C2)CC(=O)N1 (stereo not drawn) [R+R'=--CH2 --CH2 -- and R""=H]",protective effect against acute daunorubicin toxicity,[1],either no protective activity or only minimal protective activity
"CC(CN1CC(=O)N(C)C(=O)C1)N1CC(=O)N(C)C(=O)C1 (stereo not drawn) [R=R""=CH3and R'=H (l)]",protective effect against acute daunorubicin toxicity,[1],either no protective activity or only minimal protective activity
"C[C@H]([C@H](C)N1CC(=O)NC(=O)C1)N1CC(=O)NC(=O)C1 [R=R'=CH3 and R""=H (meso)]",protective effect against acute daunorubicin toxicity,[1],either no protective activity or only minimal protective activity
"CN1C(=O)CN(CCN2CC(=O)N(C)C(=O)C2)CC1=O [R=R'=H and R""=CH3]",protective effect against acute daunorubicin toxicity,[1],either no protective activity or only minimal protective activity
"O=C1CN(CCN2CC(=O)NC(=O)C2)CC(=O)N1 [R=R'=R""=H]",protective effect against acute daunorubicin toxicity,[1],either no protective activity or only minimal protective activity
O=C1CN(CCN2CC(=O)N(CN3CCOCC3)C(=O)C2)CC(=O)N1CN1CCOCC1 [bimolane],protective effect against acute daunorubicin toxicity,[1],give protection against the lethal effects of daunorubicin
COc1cccc2c1C(=O)c1c(O)c3c(c(O)c1C2=O)C[C@@](O)(C(=O)CO)C[C@@H]3O[C@H]1C[C@H](N)[C@H](O)[C@H](C)O1 [doxorubicin],reduction in body weight in the first three weeks after treatment,"[5]; doxorubicin 4 mg/kg i.v., pretreated with saline i.p.",> 10%
same,W2: mean body weight at 4 weeks after treatment,[5]; [10],381 ± 8
same,W3: mean body weight at 8 weeks after treatment,[5]; [10],324 ± 27
same,ΔW(%): maximum reduction in body weight in the first 3 weeks after treatment,[5]; [10],11.6 ± 0.7%
same,W1: mean body weight of animals at the time of injection,"[5]; saline i.p. + doxorubicin 4 mg/kg i.v. after 1 hour, baseline",447 ± 11
same,reduction in cardiac output,[2]; [11],60%
same,reduction in heart rate,[2]; [11],35%
same,death during study,"[2]; saline + doxorubicin 4 mg/kg, 9 animals",one animal died just before 8 weeks
same,RCO: mean relative cardiac output (treated / age-matched control),[2]; [12],0.41 ± 0.04
same,RHR: mean relative heart rate (treated / age-matched control),[2]; [12],0.65 ± 0.19
same,Survival,[2]; [12],8/9
same,Incidence of CHF (congestive heart failure),[2]; [10],0/8
